Here are results for eight compounds from ChEMBL document CHEMBL4417639, “Nt5c2 inhibitors useful for the treatment of chemotherapy resistant acute lymphoblastic leukemia” (2018).

Test [1] has as its target Cytosolic purine 5'-nucleotidase (Homo sapiens) (UniProt P49902). The experiment in a line: Inhibition of basal nucleotidase activity of recombinant NT5C2 (unknown origin) pre-incubated for 10 mins before IMP substrate addition and further incubated for 5 mins in absence of ATP by malachite green assay.
The target is the same in test [2]. As to the kind of experiment: Inhibition of nucleotidase activity of recombinant NT5C2 (unknown origin) pre-incubated for 10 mins before IMP substrate addition and further incubated for 5 mins in presence of 0.3 mM ATP by malachite green assay relative to control.

Molecules are shown by their SMILES. Calls of active or inactive are those of the source. No cut-off for these calls is given here.

Chain of Cytosolic purine 5'-nucleotidase (Homo sapiens) (P49902 whole entry): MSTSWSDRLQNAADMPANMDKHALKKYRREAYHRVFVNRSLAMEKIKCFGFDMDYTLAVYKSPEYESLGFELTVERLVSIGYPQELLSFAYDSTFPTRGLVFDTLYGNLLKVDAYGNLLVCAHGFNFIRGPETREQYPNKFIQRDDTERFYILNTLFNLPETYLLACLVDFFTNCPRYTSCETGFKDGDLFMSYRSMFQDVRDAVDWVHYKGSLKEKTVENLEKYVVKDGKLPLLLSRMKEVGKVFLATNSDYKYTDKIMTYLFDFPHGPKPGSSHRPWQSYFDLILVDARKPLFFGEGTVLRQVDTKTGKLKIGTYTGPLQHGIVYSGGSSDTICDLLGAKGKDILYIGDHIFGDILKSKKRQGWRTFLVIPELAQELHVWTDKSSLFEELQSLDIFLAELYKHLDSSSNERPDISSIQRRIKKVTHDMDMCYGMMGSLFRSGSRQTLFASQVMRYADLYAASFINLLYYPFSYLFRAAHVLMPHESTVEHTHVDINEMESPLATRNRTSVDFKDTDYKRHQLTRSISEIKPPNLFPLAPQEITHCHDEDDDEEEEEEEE

As to `Nc1nc2c(c(NCCc3csc(N)n3)n1)CCCC2`, in test [1], the inhibition (in general, the change of the read-out against control, counted positive when it falls) was “Active”. Further, the inhibition in test [2] amounted to 75%.

`Nc1nc2c(c(N3CCc4nc(N)sc4C3)n1)CCCC2`: the inhibition result in test [1] was “Active”. Further, the inhibition in test [2] was found to be 42%.

Consider `Nc1nc(N2CCOCC2)cc(N2CCC(c3cc(CC(=O)O)[nH]n3)CC2)n1`, for which the inhibition result in test [1] was “Active”. Also, the inhibition in test [2] was 85%.

Take `CCc1nc(N)nc(N2CCCOC(CN3CCOCC3)C2)c1C` (stereo unspecified): the inhibition result in test [1] is “Active”. Moreover, in test [2], the inhibition worked out at 29%.

Take `CCc1c(C)nc(N)nc1NCCc1csc(N)n1`: the inhibition result in test [1] is “Active”. Further, the inhibition in test [2] is 49%.

For the compound `Cc1nc(N2CCC(c3cc(CC(=O)O)n[nH]3)CC2)cc(-n2cccn2)n1`, the inhibition result in test [1] is “Active”. Also, the inhibition in test [2] was found to be 49%.

As for `Cc1cc(N2CCC(c3cc(CC(=O)O)n[nH]3)CC2)nc(N2CCCC2)n1`, the inhibition entry in test [1] was “Active”. Also, in test [2], the inhibition was 62%.

`CCc1cc(NCCCc2csc(N)n2)nc(N)n1`: the inhibition result in test [1] is “Active”. Also, the inhibition in test [2] was found to be 54%.
